According to US8075562B2, “Controlled release of biopharmaceutical growth factors from hydroxyapatite coating on bioresorbable interference screws used in cruciate ligament reconstruction surgery” (Wisconsin Alumni Research Foundation, priority 2007, dated 2011):
Entries after “also recorded” stand apart in the source; their conditions may differ. Read-outs that look alike come from different tables or passages of the source.

What was measured:
[1] = Binding of engineered BMP-2 peptide to hydroxyapatite in solution; settings: preliminary results
Text: Binding growth factors to calcium phosphate minerals. Characterization of binding of engineered bone morphogenetic protein-2 peptide (eBMP-2) to CaP mineral materials is characterized. […] (See, FIGS. 10 and 11). […] (See, FIGS. 12 and 13). […] BMP-2 will be used because it has a high intrinsic affinity for CaP minerals.

[2] = tested on: mesenchymal stem cells; assay: Stem cell-based bioactivity assay (alkaline phosphatase upregulation, osteogenic differentiation)

Substance: KIPKA SSVPT ELSAI STLYL (KIPKASSVPTELSAISTLYL) [eBMP-2, engineered bone morphogenetic protein-2 peptide; hBMP-2: 73-92 (C78, 79S, M89T)]
- binding to hydroxyapatite in solution [1]: forms strong ionic bonds to hydroxyapatite; also recorded: binds to the hydroxyapatite mineral in solution
- osteogenic differentiation / alkaline phosphatase upregulation [2]: biologically active
- osteogenic differentiation / alkaline phosphatase upregulation ([2]; listed as e-BMP-2): promotes osteogenic differentiation
